From publication PMC2819846 (Mutation research, 2008)
Values joined by “and” are separate entries in the source; they are usually repeats but may differ in a detail not shown here. Equal entries are not always repeated. Where two headings read alike, the source gives them in different places.

Experiments:
Salmonella TA98 = assay: Salmonella plate-incorporation mutagenicity assay, strain TA98, with S9 mix; format: cell-based
Salmonella TA100 = assay: Salmonella plate-incorporation mutagenicity assay, strain TA100; format: cell-based
[1] = system: DNA from Salmonella TA100; assay: Abasic sites by aldehydic-site assay in DNA of treated TA100; format: cell-based; settings: DMSO 5.9 ± 0.33
Salmonella TA104 = assay: Salmonella plate-incorporation mutagenicity assay, strain TA104, with S9 mix; format: cell-based
[2] = system: DNA from Salmonella TA100; assay: Stable DNA adducts by 32P-postlabeling in DNA of treated TA100; format: cell-based; settings: DMSO 0.024 ± 0.000
strain TA100 = format: cell-based, Salmonella; settings: TA100 liquid-suspension; for Rev/10^6 survivors: DMSO 0.8; for Percent survival: DMSO 100

Which Rev/plate (Salmonella TA98; TA98 +S9, Test 1, 2 µg/plate, zero-dose 33/40/39) does the source give for `O=S1(=O)C=Cc2c1ccc1ccc3ccccc3c21` [P[3,4-b]T sulfone, Phenanthro[3,4-b]thiophene sulfone] here?
Its Rev/plate is 328 rev/plate.

What about the Rev/plate (Salmonella TA98; TA98 +S9, Test 1, 5 µg/plate, zero-dose 33/40/39) of the same molecule?
Its Rev/plate is 982 rev/plate.

What about the Rev/plate (Salmonella TA98; TA98 +S9, Test 1, 10 µg/plate, zero-dose 33/40/39) of the same molecule?
The Rev/plate was 1373 rev/plate.

What about the Rev/plate (Salmonella TA98; TA98 +S9, Test 1, 20 µg/plate, zero-dose 33/40/39) of the same molecule?
The Rev/plate was 1324 rev/plate.

And the Rev/plate (Salmonella TA98; TA98 +S9, Test 1, 40 µg/plate, zero-dose 33/40/39)?
The Rev/plate was 1124 rev/plate.

And the Rev/plate (Salmonella TA98; TA98 +S9, Test 1, 80 µg/plate, zero-dose 33/40/39)?
The Rev/plate was 1268 rev/plate.

What about the Rev/plate (Salmonella TA98; TA98 +S9, Test 2, 0.5 µg/plate, zero-dose 43/41/30) of the same molecule?
The Rev/plate was 41/57.

And the Rev/plate (Salmonella TA98; TA98 +S9, Test 2, 1 µg/plate, zero-dose 43/41/30)?
Its Rev/plate is 63/67.

And the Rev/plate (Salmonella TA98; TA98 +S9, Test 2, 2.5 µg/plate, zero-dose 43/41/30)?
The Rev/plate was 263/237.

What about the Rev/plate (Salmonella TA98; TA98 +S9, Test 2, 5 µg/plate, zero-dose 43/41/30) of the same molecule?
The Rev/plate was 765/708.

And the Rev/plate (Salmonella TA98; TA98 +S9, Test 3, 0.5 µg/plate, zero-dose 49/50/50)?
The Rev/plate was 56/52.

What about the Rev/plate (Salmonella TA98; TA98 +S9, Test 3, 1 µg/plate, zero-dose 49/50/50) of the same molecule?
Its Rev/plate is 124/86.

What about the Rev/plate (Salmonella TA98; TA98 +S9, Test 3, 2.5 µg/plate, zero-dose 49/50/50) of the same molecule?
Its Rev/plate is 293/366.

What about the Rev/plate (Salmonella TA98; TA98 +S9, Test 3, 5 µg/plate, zero-dose 49/50/50) of the same molecule?
The Rev/plate was 1078/922.

What about the “Mutagenic potency, Revertants/µg ± S.E., TA98” value (Salmonella TA98; plate-incorporation, +S9) of the same molecule?
The value was 143 rev/µg and 143 ± 19 rev/µg.

What about the “Mutagenicity call TA98” value (Salmonella TA98; plate-incorporation, +S9) of the same molecule?
Its value is “(+) (Called mutagenic (+) based on showing reproducible, dose-related increases in rev/plate that reached or exceeded 2-fold relative to zero-dose controls)”.

What about the Rev/plate (Salmonella TA100; TA100 +S9, Test 3, 0.1 µg/plate, zero-dose 127/118/125) of the same molecule?
The Rev/plate was 239/190.

And the Rev/plate (Salmonella TA100; TA100 +S9, Test 3, 0.25 µg/plate, zero-dose 127/118/125)?
The Rev/plate was 368/365.

And the Rev/plate (Salmonella TA100; TA100 +S9, Test 3, 0.5 µg/plate, zero-dose 127/118/125)?
Its Rev/plate is 681/795.

And the Rev/plate (Salmonella TA100; TA100 +S9, Test 3, 1 µg/plate, zero-dose 127/118/125)?
Its Rev/plate is 1332/1283.

And the Rev/plate (Salmonella TA100; TA100 +S9, Test 3, 2.5 µg/plate, zero-dose 127/118/125)?
The Rev/plate was 2801/2710.

And the Rev/plate (Salmonella TA100; TA100 +S9, Test 3, 5 µg/plate, zero-dose 127/118/125)?
The Rev/plate was 3090/3170.

And the Rev/plate (Salmonella TA100; TA100 +S9, Test 4, 0.1 µg/plate, zero-dose 112/140/115)?
The Rev/plate was 197/195.

And the Rev/plate (Salmonella TA100; TA100 +S9, Test 4, 0.25 µg/plate, zero-dose 112/140/115)?
Its Rev/plate is 284/297.

And the Rev/plate (Salmonella TA100; TA100 +S9, Test 4, 0.5 µg/plate, zero-dose 112/140/115)?
The Rev/plate was 453/514.

What about the Rev/plate (Salmonella TA100; TA100 +S9, Test 4, 1 µg/plate, zero-dose 112/140/115) of the same molecule?
The Rev/plate was 380/383.

What about the Rev/plate (Salmonella TA100; TA100 +S9, Test 4, 2.5 µg/plate, zero-dose 112/140/115) of the same molecule?
Its Rev/plate is 1885 rev/plate.

And the Rev/plate (Salmonella TA100; TA100 +S9, Test 5, 0.1 µg/plate, zero-dose 102/119/99)?
The Rev/plate was 194/197.

And the Rev/plate (Salmonella TA100; TA100 +S9, Test 5, 0.25 µg/plate, zero-dose 102/119/99)?
The Rev/plate was 255/245.

And the Rev/plate (Salmonella TA100; TA100 +S9, Test 5, 0.5 µg/plate, zero-dose 102/119/99)?
The Rev/plate was 504/448.

What about the Rev/plate (Salmonella TA100; TA100 +S9, Test 5, 1 µg/plate, zero-dose 102/119/99) of the same molecule?
The Rev/plate was 1037/993.

What about the Rev/plate (Salmonella TA100; TA100 +S9, Test 5, 2.5 µg/plate, zero-dose 102/119/99) of the same molecule?
Its Rev/plate is 2935/2875.

And the “Mutagenic potency, Revertants/µg ± S.E., TA100” value (Salmonella TA100; plate-incorporation, +S9)?
Its value is 914 ± 113 rev/µg.

And the “Mutagenicity call TA100” value (Salmonella TA100; plate-incorporation, +S9)?
Its value is “(+) (Called mutagenic (+) based on showing reproducible, dose-related increases in rev/plate that reached or exceeded 2-fold relative to zero-dose controls)”.

What about the “Mutagenicity without S9 mix (direct-acting activity)” value (Salmonella TA100; without S9 mix) of the same molecule?
Its value is “required metabolic activation to be mutagenic”.

And the “Abasic sites/10^5 nucleotides ± S.E” value ([1]; TA100, 10 µg/ml)?
Its value is 18.4 ± 0.64 sites/10^5 nucleotides.

What about the “Abasic sites/10^5 nucleotides ± S.E” value ([1]; TA100, 20 µg/ml) of the same molecule?
The value was 15.1 ± 0.43 sites/10^5 nucleotides.

What about the Rev/plate (Salmonella TA104; TA104 +S9, Test 2, 2.5 µg/plate, zero-dose 276/260/270) of the same molecule?
The Rev/plate was 1068/1015.

And the Rev/plate (Salmonella TA104; TA104 +S9, Test 2, 5 µg/plate, zero-dose 276/260/270)?
The Rev/plate was 1603/1565.

What about the Rev/plate (Salmonella TA104; TA104 +S9, Test 2, 10 µg/plate, zero-dose 276/260/270) of the same molecule?
Its Rev/plate is 1488/1583.

And the Rev/plate (Salmonella TA104; TA104 +S9, Test 2, 20 µg/plate, zero-dose 276/260/270)?
Its Rev/plate is 706/778.

What about the Rev/plate (Salmonella TA104; TA104 +S9, Test 3, 2.5 µg/plate, zero-dose 402/395/336) of the same molecule?
Its Rev/plate is 1027/982.

And the Rev/plate (Salmonella TA104; TA104 +S9, Test 3, 5 µg/plate, zero-dose 402/395/336)?
The Rev/plate was 1650/1580.

And the Rev/plate (Salmonella TA104; TA104 +S9, Test 3, 10 µg/plate, zero-dose 402/395/336)?
The Rev/plate was 1652/1652.

And the Rev/plate (Salmonella TA104; TA104 +S9, Test 3, 20 µg/plate, zero-dose 402/395/336)?
Its Rev/plate is 758/919.

And the “Mutagenic potency, Revertants/µg ± S.E., TA104” value (Salmonella TA104; plate-incorporation, +S9)?
Its value is 262 ± 135 rev/µg.

And the “Mutagenicity call TA104” value (Salmonella TA104; plate-incorporation, +S9)?
Its value is “(+) (Called mutagenic (+) based on showing reproducible, dose-related increases in rev/plate that reached or exceeded 2-fold relative to zero-dose controls)”.

And the “Stable adducts/10^8 nucleotides ± S.E” value ([2]; TA100, 10 µg/ml)?
The value was “Not detected”.

And the “Stable adducts/10^8 nucleotides ± S.E” value ([2]; TA100, 20 µg/ml)?
The value was “Not detected”.

What about the “Fold increase in mutant frequency relative to DMSO-treated cells” value (strain TA100; 10 µg/ml) of the same molecule?
Its value is 17.6 fold.

And the “Rev/10^6 survivors” value (strain TA100; 10 µg/ml)?
The value was 14.1 Rev/10^6 survivors.

What about the Percent survival (strain TA100; 10 µg/ml) of the same molecule?
Its Percent survival is 56%.

What about the “Fold increase in mutant frequency relative to DMSO-treated cells” value (strain TA100; 20 µg/ml) of the same molecule?
The value was 62.1 fold.

What about the “Rev/10^6 survivors” value (strain TA100; 20 µg/ml) of the same molecule?
Its value is 49.1 Rev/10^6 survivors.

And the Percent survival (strain TA100; 20 µg/ml)?
The Percent survival was 37%.
